Key:
[1] = Oil Red O staining of liver of obesity-aged mice (Example 9-5); format: in vivo, C57BL6J mice; conditions: stained area, LX-112 70 mg/kg oral daily 21 days, DIO without LX = 100%
Procedure: 15-week-old male C57BL6J mice (purchased from Jackson Laboratories), whose obesity was induced by a high-fat diet, were adapted to the experimental environment for one week, and then the mice were randomized into an experimental group and a control group. LX-112 was mixed with 0.5% CMC-Na solution (purchased from Sigma) and administered orally at a concentration of 70 mg/kg daily for 21 days. The control group was administered only the solution in the same volume. After drug administration was completed, the method described in each Example below was performed. Mice were sacrificed and the weight of adipose tissue in each area was measured.
Table 60 calculates the stained area of Oil Red O after aging induced by obesity as 100% and compares it with the stained area of Oil Red O after treatment with LX-112.

lipofuscin = lipofuscin staining of muscle of doxorubicin-aged mice (Example 8-4); format: in vivo, C57BL6J mice; conditions: stained area; doxorubicin-aged mice, LX-112 70 mg/kg oral daily 21 days
Procedure: After adapting 8-week-old male C57BL6J mice (purchased from KRIBB Laboratory Animal Resource Center) to the experimental environment for 1 week, doxorubicin, an anticancer drug, was administered intraperitoneally at a concentration of 10 mg/kg, and mice that were induced to age for more than 10 days were assigned to an experimental group and a control group. LX-112 was mixed with 0.5% CMC-Na solution (purchased from Sigma) and administered orally at a concentration of 70 mg/kg daily for 21 days. The control group was administered only the solution in the same volume. After drug administration was completed, the method described in each Example below was performed.
Mice were sacrificed in the same manner as in Example 7-4, and tissue sections were prepared from muscle tissue. Lipofuscin, an aging-related degenerative marker was stained.

O=c1c2ccccc2[se]n1CCn1[se]c2ccccc2c1=O [LX-112, 1,2-[bis(1,2-benzisoselenazolone-3(2H)-ketone)]ethane]
Oil Red O (%) [1]: 74 (±7.3) % | Lipofuscin (%) Muscle (lipofuscin): 77.1 (±8) %

— patent US20250108036A1, “COMPOSITIONS FOR REMOVING SENESCENT CELLS AND USES THEREOF” (LIFECEUTIX CO., LTD., priority 2021, published 2025)
